Results: patent US9296716B2, “Androgen receptor ligands” (THE PROVOST, FELLOWS, FOUNDATION SCHOLARS, & THE OTHER …, priority 2011, dated 2016)
Read-outs that look alike come from different tables or passages of the source.

How the values were obtained:
[1] = biological target: Estrogen Receptor beta (ER-β) LBD (Homo sapiens, UniProt Q92731); assay: TR-FRET PGC1-α coactivator recruitment assay, ERβ LBD; type: biochemical; conditions: Estradiol = EC80
Experimental: (§1) Compound binding affinities for Progesterone Receptor (PR), Glucocorticoid Receptor (GR), Estrogen Receptor alpha and Estrogen Receptor beta were determined using TR-FRET (Table 2).
(§2) Selectivity of the diarylhydrazide scaffold for the AR was determined through a TR-FRET assay in ERα (FIGS. 8A & 9A1) and ERR (FIGS. 8B & 9A2). […] The non-LBP nature of this inhibition was confirmed by a FP assay (FIGS. 9C, 9B1 & 9B2).
(§3) Lanthascreen TR-FRET AR Coactivator Assay kit (Invitrogen, cat no. PV4381) was used to screen for potential coactivator disruptors.
(§4) TR FRET values were calculated at 10 flashes per well, using a delay time of 100 μs and integration time 200 μs as recommended by the Invitrogen assay guidelines. […] A serial dilution of compounds was firstly prepared in 100×DMSO (Sigma-Aldrich) starting from the maximum desired concentration to achieve a 12 point range concentration using 96-well polypropylene plates (Nalgene Nunc, Rochester, N.Y.). Each 100× solution was diluted to 2× concentration with TR-FRET co-regulator buffer A (Invitrogen proprietary buffer), yielding a final concentration of 1% DMSO in each well.
(§5) D11-FxxLF and Tb antibody were premixed in light protecting vials prior to use. A final concentration of DTT 5 mM was used in the assay buffer in order to prevent protein degradation. All plates (agonist and antagonist mode) were incubated between 2 and 4 hours at room temperature protected from light prior to TR-FRET measurement. […] Data was fitted using the sigmoidal dose response (variable slope) available from Graphpad Prism 5. Y=Bottom+(Top-Bottom)/(1+10^((Log IC50−X)*HillSlope))
(§6) The same procedure was used for AR T877A (Invitrogen cat no. PV4667), PR (Invitrogen cat no. PV4666), ER-α (Invitrogen cat no. PV4544), ER-β (Invitrogen cat no. PV4541) and GR (Invitrogen cat no. PV4683). The assay was adapted to exclude possible non-specific aggregation mechanism of inhibition by adding very low concentration of detergent Triton X-100 (0.001%) to the assay buffer following the Shoichet review guidelines [Shoichet BK (2006) Screening in a spirit haunted world. Drug Discov Today 11:607-615].

[2] = biological target: T1, Estrogen Receptor alpha (ER-α) LBD (Homo sapiens, UniProt P03372); assay: TR-FRET PGC1-α coactivator recruitment assay, ERα LBD; type: biochemical; conditions: Estradiol = EC80
T1 sequence (P03372 311-547 limits assumed): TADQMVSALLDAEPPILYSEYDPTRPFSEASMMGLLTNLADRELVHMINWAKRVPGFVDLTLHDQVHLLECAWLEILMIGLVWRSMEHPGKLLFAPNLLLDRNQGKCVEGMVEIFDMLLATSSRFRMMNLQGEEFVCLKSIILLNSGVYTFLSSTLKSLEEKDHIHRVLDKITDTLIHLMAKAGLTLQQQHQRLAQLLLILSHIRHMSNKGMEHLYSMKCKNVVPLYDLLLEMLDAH
Experimental: as §1, §2, §3, §4, §5, §6

AR-LBD wt = biological target: T2, AR-LBD wt (Homo sapiens, UniProt P10275); assay: Lanthascreen TR-FRET AR coactivator (D11-FxxLF) assay, AR-LBD wt; type: biochemical; conditions: for IC50: TR-FRET, D11-FxxLF peptide, DHT = EC80
T2 sequence (P10275 669-900 limits assumed): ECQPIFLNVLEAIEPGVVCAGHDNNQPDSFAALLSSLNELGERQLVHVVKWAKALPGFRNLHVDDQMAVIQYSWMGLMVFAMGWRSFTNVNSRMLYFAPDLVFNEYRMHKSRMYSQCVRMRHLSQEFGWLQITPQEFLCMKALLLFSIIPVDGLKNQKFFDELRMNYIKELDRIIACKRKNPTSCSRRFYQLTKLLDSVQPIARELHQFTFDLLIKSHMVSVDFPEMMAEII

LNCaP cells = assay: LNCaP cell proliferation assay (androgen deprived, AlamarBlue); type: cell-based; conditions: LNCaP
Experimental: To determine the optimal DHT concentration and length of treatment required for cell proliferation assays, we tested a range of DHT concentrations in 0.1% DMSO for 5 or 7 days in LNCaP cells cultured in FBS stripped phenol red free media. […] Media and treatments were replaced every second incubation day (FIGS. 12 A and B)
For cell viability (end point) assays LNCaP, PC-3 and PWR-1E cells were seeded at 2.5*10^4/ml density in 200 μl volume of a 96-well plate in triplicate and incubated for 24 hours prior testing. Test compounds were included at different concentrations to achieve a final concentration of 0.5% DMSO in each well. Effect of 0.5% DMSO on cell-viability was also evaluated. Cell viability was assessed after 24 hours of treatment using 10% Alamar Blue reagent (Invitrogen) for each well. Cell viability was monitored by the reduction of resazurin, a blue, cell-permeable and non-toxic compound, to resorufin, a red and highly fluorescent product. Viable cells continuously convert resazurin to resorufin, increasing the overall colour and fluorescence of the media surrounding cells. Fluorescence intensity can be quantitatively determined with a fluorescence microplate reader at excitation/emission 544 nm/590 nm (Spectramax Gemini). For hormone dependent cell proliferation assays in androgen deprived LNCaP cells, cells were seeded at 2*10^4 cells/ml in a 24-well plate in triplicate. Cells were plated in phenol red free RPMI Glutamax (Invitrogen) supplemented with 10% charcoal-stripped FBS to deplete endogenous steroids 48 hours prior the assay as described in previous reports. […] Cells were treated with different concentrations of test compounds with or without 0.1 nM DHT to achieve a final concentration of 0.1% DMSO in each well. A control for the vehicle was included to ensure no effect on viability could be detected. Media and treatments were replaced every second day, after washing the cells twice with 1×PBS. Supernatants were collected after five days for secreted PSA levels evaluation and cell proliferation was assessed for the same plate using Alamar Blue in order to exclude non-specific effects due to toxicity issues.

[3] = biological target: T3, Progesterone Receptor (PR) LBD (Homo sapiens, UniProt P06401); assay: TR-FRET SRC1-4 coactivator recruitment assay, PR LBD; type: biochemical; conditions: Progesterone = EC80
T3 construct: purchased Invitrogen PV4666
T3 sequence (P06401 679-913 limits assumed): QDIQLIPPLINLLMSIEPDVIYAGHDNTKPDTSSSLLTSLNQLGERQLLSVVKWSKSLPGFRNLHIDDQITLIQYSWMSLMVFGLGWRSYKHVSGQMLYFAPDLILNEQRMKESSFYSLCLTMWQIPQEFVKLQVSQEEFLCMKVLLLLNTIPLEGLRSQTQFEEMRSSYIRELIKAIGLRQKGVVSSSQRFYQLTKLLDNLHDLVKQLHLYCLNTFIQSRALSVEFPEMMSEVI
Experimental: as §1, §3, §4, §5, §6

Sequence of Estrogen Receptor beta (ER-β) LBD (Q92731 264-498 limits assumed): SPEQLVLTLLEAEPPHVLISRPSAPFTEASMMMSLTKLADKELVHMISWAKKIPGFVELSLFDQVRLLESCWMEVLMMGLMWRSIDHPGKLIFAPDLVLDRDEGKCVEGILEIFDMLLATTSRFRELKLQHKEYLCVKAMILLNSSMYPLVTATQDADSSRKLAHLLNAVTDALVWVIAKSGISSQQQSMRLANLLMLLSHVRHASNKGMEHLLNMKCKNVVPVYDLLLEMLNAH

COc1cc(/C=N/NC(=O)c2cc3c(ccc4ccccc43)o2)cc(OC)c1O [MDG506]
effect on ERβ recruitment of fluorescent labelled PGC1-α ([1]; 100 μM to 45 nM): partially inhibit
IC50 ([1]; TR-FRET, ± SEM (n = 6), read-out: NR LBDs IC50 (μM) ER-β): > 100 µM
effect on ERα recruitment of fluorescent labelled PGC1-α ([2]; 100 μM to 45 nM): partially inhibit
IC50 ([2]; TR-FRET, ± SEM (n = 6), read-out: NR LBDs IC50 (μM) ER-α): > 100 µM
type of AR antagonism (full / partial) (AR-LBD wt; TR-FRET in agonist and antagonist mode): full AR antagonists
IC50 (AR-LBD wt; read-out: AR (wt)): 26.3 ± 3.8 µM
IC50 (AR-LBD wt; read-out: Activity (AR wt TR-FRET)): 26.3 ± 3.8 µM
DHT dependent cell proliferation (LNCaP cells; DHT 0.1 nM, 5 days): clear dose dependent effect in reducing
CPA induced cell proliferation (LNCaP cells; MDG506 at 10 or 20 μM): reduces
cell proliferation in absence of DHT / androgens (LNCaP cells; androgen deprived media, no DHT): does not induce
effect on PR recruitment of fluorescent labelled SRC1-4 ([3]; 100 μM to 45 nM): partially inhibit
IC50 ([3]; TR-FRET, ± SEM (n = 6), read-out: NR LBDs IC50 (μM) PR): 27.7 ± 7.3 µM
